According to publication PMC7031696 (Cell chemical biology, 2019):
Entries after “also recorded” stand apart in the source; their conditions may differ. Read-outs that look alike come from different tables or passages of the source.

Legend:
[1] = tested on: Plasmodium falciparum 3D7-A10 parasites; test: Stage specificity assay (8-h exposure of synchronized stages, IC50^8h); format: cell-based; conditions: for Ratio lowest IC50 8hr/IC50 72hr: 3D7-A10; for Stage of peak activity (Figure 6): period when the parasite was most susceptible (lowest IC50^8h)
[2] = tested on: asynchronous 3D7-A10 parasite cultures; test: Standard 72-h exposure asexual blood stage susceptibility assay (IC50^72h); format: cell-based, Plasmodium falciparum; conditions: read-out: Overall (72hr assay) Mean IC50 (IC50^72h); 72-h exposure, asynchronous 3D7-A10
[3] = read-out: Early rings Mean IC50 (IC50^8h), 8-h exposure 0–8 hr, 3D7-A10, survival at 60 h
[4] = read-out: Early trophozoites Mean IC50 (IC50^8h), 8-h exposure 16–24 hr, 3D7-A10, survival at 60 h
[5] = read-out: Late rings Mean IC50 (IC50^8h), 8-h exposure 8–16 hr, 3D7-A10, survival at 60 h
[6] = read-out: Late trophozoites Mean IC50 (IC50^8h), 8-h exposure 24–32 hr, 3D7-A10, survival at 60 h
[7] = read-out: Schizonts Mean IC50 (IC50^8h), 8-h exposure 32–40 hr, 3D7-A10, survival at 60 h

Compound	Ratio lowest IC50 8hr/IC50 72hr [1]	Stage of peak activity (Figure 6) [1]	IC50 [1, 3] [µM]	IC50 [1, 4] [µM]	IC50 [1, 5] [µM]	IC50 [1, 6] [µM]	IC50 [1, 7] [µM]	IC50 [2] [µM]	overall activity profile (stages on which active) ([1]; 8-h exposures)	killing in stage specificity assay ([1]; 8-h exposures, survival curves)	IC50 ([1]; read-out: Early rings IC50 (IC50^8h), 8-h exposure 0–8 hr, bound given in μM) [µM]	IC50 ([1]; read-out: Late rings IC50 (IC50^8h), 8-h exposure 8–16 hr, bound given in μM) [µM]	Peak Activity (Table S1) ([1]; stage(s) with the lowest IC50^8h)
CC(C)(C)NCc1cc(Nc2ccnc3cc(Cl)ccc23)c2c(c1O)CCCC2 [Naphtoquine, Naphthoquine, reference compound]	1.3	early rings; also recorded: ring stages	0.0042	0.0195	0.0081	0.0292	0.0428	0.0032					
CN(C)Cc1ccc(-c2cc3c(-c4ccc(CN(C)C)cc4)ccnc3[nH]2)cc1.O=C(O)C(F)(F)F [MMV022224]	2.7	rings and trophozoites	0.838	0.542	0.845	0.752	2.49	0.199	activity exclusively in rings and trophozoites but not in schizonts				
Ferroquine [reference compound]	1.4	early rings; also recorded: ring stages	0.0049	0.0232	0.0109	0.0368	0.0493	0.0035					
CC(C)(C)c1ccc2c(c1)CN(Cc1ccc(Cl)cc1)CO2 [MMV000442]	4.7	trophozoites		0.176		0.197	0.503	0.0372		incomplete killing at all asexual blood stages	> 8	> 8	Trophs
